Tests used:
[1] = biological target: T1, Tyrosine-protein kinase JAK2 (Homo sapiens, UniProt O60674); assay: Inhibition of JAK2 (unknown origin) by Lanthascreen kinase assay
[2] = biological target: T2, Tyrosine-protein kinase JAK3 (Homo sapiens, UniProt P52333); assay: Inhibition of JAK3 (unknown origin) by Lanthascreen kinase assay
T2 sequence (P52333 whole entry): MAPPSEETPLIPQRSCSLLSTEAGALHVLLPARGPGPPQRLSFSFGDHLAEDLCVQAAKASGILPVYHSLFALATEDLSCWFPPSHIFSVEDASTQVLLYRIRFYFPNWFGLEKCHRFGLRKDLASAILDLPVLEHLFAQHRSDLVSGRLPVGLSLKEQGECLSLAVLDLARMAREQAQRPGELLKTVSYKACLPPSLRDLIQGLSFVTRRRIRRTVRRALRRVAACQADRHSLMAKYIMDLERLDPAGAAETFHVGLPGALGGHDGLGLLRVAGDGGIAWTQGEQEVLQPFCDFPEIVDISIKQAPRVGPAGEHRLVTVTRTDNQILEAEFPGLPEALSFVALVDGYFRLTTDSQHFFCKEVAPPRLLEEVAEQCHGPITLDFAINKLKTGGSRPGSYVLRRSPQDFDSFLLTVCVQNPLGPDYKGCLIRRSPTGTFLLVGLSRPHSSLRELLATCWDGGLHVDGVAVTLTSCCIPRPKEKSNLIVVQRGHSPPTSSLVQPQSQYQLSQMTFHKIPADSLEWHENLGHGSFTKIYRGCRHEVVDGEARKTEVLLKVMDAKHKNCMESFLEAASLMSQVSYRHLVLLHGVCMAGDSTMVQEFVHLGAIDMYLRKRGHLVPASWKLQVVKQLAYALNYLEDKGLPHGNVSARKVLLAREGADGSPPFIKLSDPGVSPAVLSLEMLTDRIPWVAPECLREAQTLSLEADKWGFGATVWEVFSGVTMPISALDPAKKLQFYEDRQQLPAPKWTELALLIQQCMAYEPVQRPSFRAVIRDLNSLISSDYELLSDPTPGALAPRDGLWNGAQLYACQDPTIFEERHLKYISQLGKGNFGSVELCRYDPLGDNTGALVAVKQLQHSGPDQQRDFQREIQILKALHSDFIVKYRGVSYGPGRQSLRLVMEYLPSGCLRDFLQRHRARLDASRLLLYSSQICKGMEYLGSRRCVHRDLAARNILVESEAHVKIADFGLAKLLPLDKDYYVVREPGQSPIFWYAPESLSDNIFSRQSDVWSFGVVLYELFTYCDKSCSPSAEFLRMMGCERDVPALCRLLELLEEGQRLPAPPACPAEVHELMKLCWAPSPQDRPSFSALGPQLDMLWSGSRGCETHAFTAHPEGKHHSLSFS

BaF3 [3] = assay: Antiproliferative activity against mouse BaF3 cells harboring JAK2 V617F mutant assessed as inhibition of cell proliferation incubated for 72 hrs by XTT assay; assay type: toxicity, cell-based; conditions: BaF3, 72 h
HEL = assay: cells; conditions: Homo sapiens, 72 h
[4] = Antiproliferative activity against mouse BaF3 cells assessed as inhibition of cell proliferation incubated for 72 hrs by XTT assay; assay type: toxicity, cell-based
U-266 = assay: Antiproliferative activity against human U266B1 cells assessed as inhibition of cell proliferation; assay type: functional, cell-based
Homo sapiens [5] = species on record: Homo sapiens; assay: Selectivity index, ratio of IC50 for inhibition of TYK2 (unknown origin) to IC50 for inhibition of JAK1 (unknown origin)
Homo sapiens [6] = species on record: Homo sapiens; assay: Selectivity index, ratio of IC50 for inhibition of JAK3 (unknown origin) to IC50 for inhibition of JAK1 (unknown origin)
[7] = biological target: T3, Non-receptor tyrosine-protein kinase TYK2 (Homo sapiens, UniProt P29597); assay: Inhibition of TYK2 (unknown origin)
T3 sequence (P29597 whole entry): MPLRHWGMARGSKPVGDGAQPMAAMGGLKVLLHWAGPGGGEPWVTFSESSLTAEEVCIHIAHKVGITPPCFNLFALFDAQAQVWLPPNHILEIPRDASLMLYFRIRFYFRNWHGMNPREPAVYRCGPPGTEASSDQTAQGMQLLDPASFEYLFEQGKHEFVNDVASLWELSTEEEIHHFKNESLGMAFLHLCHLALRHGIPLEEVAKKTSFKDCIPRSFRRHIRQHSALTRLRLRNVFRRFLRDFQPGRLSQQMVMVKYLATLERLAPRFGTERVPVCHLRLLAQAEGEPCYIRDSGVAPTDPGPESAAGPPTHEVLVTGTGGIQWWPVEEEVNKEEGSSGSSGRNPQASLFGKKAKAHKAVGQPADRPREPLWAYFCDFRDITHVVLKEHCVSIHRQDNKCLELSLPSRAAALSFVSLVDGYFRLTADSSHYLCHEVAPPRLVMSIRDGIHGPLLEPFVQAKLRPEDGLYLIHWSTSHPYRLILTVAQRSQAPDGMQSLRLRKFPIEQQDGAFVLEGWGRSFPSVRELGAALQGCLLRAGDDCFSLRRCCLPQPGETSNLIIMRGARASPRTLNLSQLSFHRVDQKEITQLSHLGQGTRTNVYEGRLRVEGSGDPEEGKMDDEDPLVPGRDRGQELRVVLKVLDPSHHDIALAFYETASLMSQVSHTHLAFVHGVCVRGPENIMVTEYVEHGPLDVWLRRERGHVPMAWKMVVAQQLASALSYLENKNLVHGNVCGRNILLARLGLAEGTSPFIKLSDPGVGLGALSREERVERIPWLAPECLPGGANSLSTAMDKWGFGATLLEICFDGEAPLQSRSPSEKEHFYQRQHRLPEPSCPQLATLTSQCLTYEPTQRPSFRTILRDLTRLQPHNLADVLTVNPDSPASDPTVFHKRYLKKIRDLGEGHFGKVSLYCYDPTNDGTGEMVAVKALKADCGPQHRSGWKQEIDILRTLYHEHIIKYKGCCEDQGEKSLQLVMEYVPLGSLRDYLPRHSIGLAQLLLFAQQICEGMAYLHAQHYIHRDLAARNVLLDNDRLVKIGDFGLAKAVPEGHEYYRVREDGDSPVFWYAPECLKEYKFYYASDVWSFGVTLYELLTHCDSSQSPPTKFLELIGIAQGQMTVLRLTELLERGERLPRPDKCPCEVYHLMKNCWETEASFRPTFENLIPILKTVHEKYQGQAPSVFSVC

[8] = biological target: T2, Tyrosine-protein kinase JAK3; assay: Inhibition of JAK3 (unknown origin)
[9] = biological target: T4, Tyrosine-protein kinase JAK1 (Homo sapiens, UniProt P23458); assay: Inhibition of JAK1 (unknown origin)
T4 sequence (P23458 whole entry): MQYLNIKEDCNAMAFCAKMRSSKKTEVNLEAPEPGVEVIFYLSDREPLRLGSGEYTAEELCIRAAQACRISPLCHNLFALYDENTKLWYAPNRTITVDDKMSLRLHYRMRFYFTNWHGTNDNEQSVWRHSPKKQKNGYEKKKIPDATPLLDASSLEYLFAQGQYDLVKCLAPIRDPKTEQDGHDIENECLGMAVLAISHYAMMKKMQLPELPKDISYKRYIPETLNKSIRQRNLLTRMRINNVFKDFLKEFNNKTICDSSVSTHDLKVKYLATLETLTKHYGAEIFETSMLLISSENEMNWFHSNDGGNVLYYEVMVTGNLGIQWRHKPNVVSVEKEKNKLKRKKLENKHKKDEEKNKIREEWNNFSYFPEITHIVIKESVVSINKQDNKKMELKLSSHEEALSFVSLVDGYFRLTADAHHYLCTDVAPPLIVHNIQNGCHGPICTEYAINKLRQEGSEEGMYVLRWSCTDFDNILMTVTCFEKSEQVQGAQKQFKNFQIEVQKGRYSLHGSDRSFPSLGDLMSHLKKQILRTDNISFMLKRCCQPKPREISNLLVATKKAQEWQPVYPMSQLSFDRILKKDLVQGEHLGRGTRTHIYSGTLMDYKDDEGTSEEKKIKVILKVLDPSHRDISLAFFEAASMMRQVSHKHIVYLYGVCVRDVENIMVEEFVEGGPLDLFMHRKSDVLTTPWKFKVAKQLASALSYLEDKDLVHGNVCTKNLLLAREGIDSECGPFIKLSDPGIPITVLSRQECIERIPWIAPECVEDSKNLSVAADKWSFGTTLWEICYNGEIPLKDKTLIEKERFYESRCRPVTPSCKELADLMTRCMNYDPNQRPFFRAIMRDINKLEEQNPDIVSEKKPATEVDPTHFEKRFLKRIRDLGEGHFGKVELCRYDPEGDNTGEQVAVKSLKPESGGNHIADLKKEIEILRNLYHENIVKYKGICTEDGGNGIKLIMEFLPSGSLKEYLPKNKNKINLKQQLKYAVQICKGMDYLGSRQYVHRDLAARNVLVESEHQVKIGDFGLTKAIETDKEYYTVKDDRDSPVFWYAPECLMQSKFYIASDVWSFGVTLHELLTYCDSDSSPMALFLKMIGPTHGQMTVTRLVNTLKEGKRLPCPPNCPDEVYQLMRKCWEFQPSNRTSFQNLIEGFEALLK

Homo sapiens [10] = species on record: Homo sapiens; assay: Selectivity index, ratio of IC50 for inhibition of JAK2 (unknown origin) to IC50 for inhibition of JAK1 (unknown origin)
[11] = biological target: T1, Tyrosine-protein kinase JAK2; assay: Inhibition of JAK2 (unknown origin)
[12] = biological target: Signal transducer and activator of transcription 3 (Homo sapiens, UniProt P40763); assay: Inhibition of IL6-stimulated STAT3 signalling in human CD4+ T cells; assay type: cell-based, T cell
Chain of Signal transducer and activator of transcription 3 (P40763 whole entry): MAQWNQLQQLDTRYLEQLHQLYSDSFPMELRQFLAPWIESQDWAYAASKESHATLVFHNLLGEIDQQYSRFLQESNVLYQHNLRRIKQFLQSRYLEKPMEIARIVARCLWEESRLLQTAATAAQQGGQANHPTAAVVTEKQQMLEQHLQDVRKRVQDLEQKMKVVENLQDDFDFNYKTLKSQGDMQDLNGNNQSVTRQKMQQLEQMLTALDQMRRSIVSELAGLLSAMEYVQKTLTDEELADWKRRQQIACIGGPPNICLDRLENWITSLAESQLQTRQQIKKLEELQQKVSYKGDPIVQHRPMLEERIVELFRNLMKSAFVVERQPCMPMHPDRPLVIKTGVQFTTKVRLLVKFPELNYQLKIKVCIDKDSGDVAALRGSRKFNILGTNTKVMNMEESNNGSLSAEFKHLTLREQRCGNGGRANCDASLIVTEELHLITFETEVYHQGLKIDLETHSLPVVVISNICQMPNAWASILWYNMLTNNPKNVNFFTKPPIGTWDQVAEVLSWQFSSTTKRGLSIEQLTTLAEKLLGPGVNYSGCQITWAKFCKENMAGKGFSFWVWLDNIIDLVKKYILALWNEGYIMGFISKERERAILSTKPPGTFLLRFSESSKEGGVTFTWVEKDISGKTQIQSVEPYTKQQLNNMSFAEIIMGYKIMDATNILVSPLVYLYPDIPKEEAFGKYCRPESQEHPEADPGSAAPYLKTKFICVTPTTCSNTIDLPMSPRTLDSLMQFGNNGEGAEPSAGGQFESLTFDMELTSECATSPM

HCT-116 [13] = assay: Antitumor activity against human HCT-116 cells xenografted in Balb/c mouse assessed as tumor growth inhibition at 15 mg/kg relative to control; assay type: functional; conditions: read-out: TGI
HCT-116 [14] = assay: Antitumor activity against human HCT-116 cells xenografted in Balb/c mouse assessed as tumor growth inhibition at 20 mg/kg relative to control; assay type: functional; conditions: read-out: TGI
[15] = biological target: T2, Tyrosine-protein kinase JAK3; assay: Inhibition of recombinant human JAK3 (781 to 1124 residues)
[16] = biological target: T3, Non-receptor tyrosine-protein kinase TYK2; assay: Inhibition of recombinant human TYK2 (870 to 1187 residues)
Homo sapiens [17] = species on record: Homo sapiens; assay: Selectivity index, ratio of IC50 for inhibition of human JAK1 kinase domain to IC50 for inhibition of human JAK2 kinase domain incubated for 1 hrs in the presence of ATP by spectrophotometric analysis
[18] = biological target: T4, Tyrosine-protein kinase JAK1; assay: Inhibition of human JAK1 kinase domain incubated for 1 hrs in the presence of ATP by spectrophotometric analysis
[19] = biological target: T2, Tyrosine-protein kinase JAK3; assay: Inhibition of human JAK3 kinase domain incubated for 1 hrs in the presence of ATP by spectrophotometric analysis
BaF3 [20] = assay: Antiproliferative activity against mouse BaF3 cells expressing TEL fused JAK2 incubated for 72 hrs by MTT assay; assay type: functional, cell-based; conditions: BaF3, 72 h
Homo sapiens [21] = species on record: Homo sapiens; assay: Selectivity index, ratio of IC50 for inhibition of human TYK2 kinase domain to IC50 for inhibition of human JAK2 kinase domain incubated for 1 hrs in the presence of ATP by spectrophotometric analysis
[22] = biological target: T1, Tyrosine-protein kinase JAK2; assay: Inhibition of human JAK2 kinase domain incubated for 1 hrs in the presence of ATP by spectrophotometric analysis
BaF3 [23] = assay: Antiproliferative activity against mouse BaF3 cells harboring JAK2 V617F mutation incubated for 72 hrs by MTT assay; assay type: functional, cell-based; conditions: BaF3, 72 h
Homo sapiens [24] = species on record: Homo sapiens; assay: Selectivity index, ratio of IC50 for inhibition of human JAK3 kinase domain to IC50 for inhibition of human JAK2 kinase domain incubated for 1 hrs in the presence of ATP by spectrophotometric analysis
[25] = biological target: T3, Non-receptor tyrosine-protein kinase TYK2; assay: Inhibition of human TYK2 kinase domain incubated for 1 hrs in the presence of ATP by spectrophotometric analysis
[26] = biological target: Proto-oncogene tyrosine-protein kinase receptor Ret (Homo sapiens, UniProt P07949); assay: Inhibition of RET (unknown origin)
[27] = biological target: T1, Tyrosine-protein kinase JAK2; assay: Competitive inhibition of JAK2 (unknown origin) in the presence of ATP
[28] = biological target: T4, Tyrosine-protein kinase JAK1; assay: Competitive inhibition of JAK1 (unknown origin) in the presence of ATP
BaF3 [29] = assay: Inhibition of cell proliferation in IL-3 stimulated mouse BaF3 cells expressing wild-type JAK2; assay type: toxicity, cell-based
[30] = biological target: Tyrosine-protein kinase JAK2 (Mus musculus, UniProt Q62120); assay: Inhibition of IL-3 stimulated wild type JAK2-mediated signalling in mouse BaF3 cells preincubated with compound for 5 hrs followed by IL-3 stimulation and measured after 20 mins by Alphascreen SureFire assay; assay type: cell-based
[31] = Inhibition of STAT5 phosphorylation in mouse BaF3 cells expressing JAK2 V617F mutant incubated for 5 hrs by Alphascreen SureFire assay; assay type: cell-based; conditions: BaF3, 5 h
BaF3 [32] = assay: Inhibition of cell proliferation in mouse BaF3 cells expressing JAK2 V617F mutant; assay type: toxicity, cell-based
[33] = biological target: T4, Tyrosine-protein kinase JAK1; assay: Inhibition of JAK1 (unknown origin) assessed as inhibition constant
[34] = Inhibition of STAT5 phosphorylation in IL-2 stimulated mouse HT-2 cells; assay type: cell-based; conditions: HT2
B cell = assay: Inhibition of cell proliferation in CD40L/IL-4-induced human B cells; assay type: toxicity, cell-based
[35] = Inhibition of T cell proliferation in Balb/c mouse spleenocytes by MLR assay; assay type: toxicity, cell-based; conditions: Splenocyte
[36] = Inhibition of T cell proliferation in CBA mouse spleenocytes by MLR assay; assay type: toxicity, cell-based; conditions: Splenocyte
[37] = Inhibition of IL-2 stimulated human T cell proliferation; assay type: toxicity, cell-based
Rattus norvegicus [38] = assay: Antiarthritic activity in CFA-induced Lewis rat assessed as increase in hind paw volume at 3 to 10 mg/kg administered for 2 weeks by plethysmometer relative to control; assay type: functional; conditions: dose 3-10 mg/kg
Rattus norvegicus [39] = assay: Antiarthritic activity in CFA-induced Lewis rat assessed as increase in hind paw volume at 1 mg/kg administered for 2 weeks by plethysmometer relative to control; assay type: functional

T1 sequence (O60674 whole entry): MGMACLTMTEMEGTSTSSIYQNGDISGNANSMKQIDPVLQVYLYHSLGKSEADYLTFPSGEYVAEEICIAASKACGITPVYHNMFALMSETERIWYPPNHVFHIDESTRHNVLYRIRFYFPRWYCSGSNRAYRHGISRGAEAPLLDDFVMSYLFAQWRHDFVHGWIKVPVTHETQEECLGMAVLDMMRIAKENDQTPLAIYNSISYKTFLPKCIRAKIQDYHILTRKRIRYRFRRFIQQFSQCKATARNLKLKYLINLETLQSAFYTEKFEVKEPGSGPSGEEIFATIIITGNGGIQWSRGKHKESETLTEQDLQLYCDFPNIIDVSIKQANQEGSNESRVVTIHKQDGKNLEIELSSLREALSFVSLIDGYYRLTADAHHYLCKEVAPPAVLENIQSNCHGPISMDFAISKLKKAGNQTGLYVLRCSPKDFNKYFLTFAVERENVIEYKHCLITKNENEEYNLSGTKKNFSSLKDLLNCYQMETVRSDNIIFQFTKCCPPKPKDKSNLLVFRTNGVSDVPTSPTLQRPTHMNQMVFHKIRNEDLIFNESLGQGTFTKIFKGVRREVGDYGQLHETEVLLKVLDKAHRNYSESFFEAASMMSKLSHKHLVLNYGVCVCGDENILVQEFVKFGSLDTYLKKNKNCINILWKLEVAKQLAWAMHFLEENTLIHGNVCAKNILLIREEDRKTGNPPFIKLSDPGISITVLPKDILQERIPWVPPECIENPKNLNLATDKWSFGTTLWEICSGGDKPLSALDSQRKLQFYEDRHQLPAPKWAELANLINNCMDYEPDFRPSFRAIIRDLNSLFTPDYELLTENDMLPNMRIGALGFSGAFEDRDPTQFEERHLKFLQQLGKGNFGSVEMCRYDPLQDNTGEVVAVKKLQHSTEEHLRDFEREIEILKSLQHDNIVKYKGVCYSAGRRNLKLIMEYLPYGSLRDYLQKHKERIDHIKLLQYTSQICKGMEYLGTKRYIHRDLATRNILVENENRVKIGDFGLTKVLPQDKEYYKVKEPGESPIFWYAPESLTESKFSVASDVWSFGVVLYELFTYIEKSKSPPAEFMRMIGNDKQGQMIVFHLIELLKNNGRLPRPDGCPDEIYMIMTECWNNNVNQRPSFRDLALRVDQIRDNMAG

Cc1cc(Nc2ccc3nc(C)n([C@@H]4CCc5ccc(F)cc54)c3c2)[nH]n1
IC50 [1]: 2 nM
IC50 [2]: 8 nM

Cc1cnc(Nc2ccc(OCCN3CCCC3)cc2)nc1Nc1cccc(S(=O)(=O)NC(C)(C)C)c1 [FEDRATINIB]
IC50 (BaF3 [3]): 270 nM
IC50 (HEL): 305 nM
IC50 at 72 h [4]: 420 nM

CC(C)(C)c1nc2c3ccc(F)cc3c3c(=O)[nH]ccc3c2[nH]1
IC50 (U-266): 250 nM

N#CCC1(n2cc(-c3ncnc4[nH]ccc34)cn2)CN(C2CCN(C(=O)c3ccnc(C(F)(F)F)c3F)CC2)C1 [ITACITINIB]
Ratio IC50 (Homo sapiens [5]): > 100
Ratio IC50 (Homo sapiens [6]): > 100
IC50 [7]: 795 nM
IC50 [8]: 2000 nM
IC50 [9]: 2 nM
Ratio IC50 (Homo sapiens [10]): > 20
IC50 [11]: 63 nM

CN(C)C(=O)/C(C#N)=C/c1ccc(-c2nc3cnc4[nH]ccc4c3n2C2CCCCC2)o1
IC50 [12]: 1000 nM

O=C(Nc1c[nH]nc1-c1nc2ccc(CN3CCOCC3)cc2[nH]1)NC1CC1 [AT-9283]
inhibition in vivo at 15 mg/kg (HCT-116 [13]): 67%
inhibition in vivo at 20 mg/kg (HCT-116 [14]): 76%

CNS(=O)(=O)C[C@H]1CC[C@H](N(C)c2ncnc3[nH]ccc23)CC1 [OCLACITINIB]
IC50 [15]: 99 nM
IC50 [16]: 84 nM

C[C@H](Nc1cc(-c2cnn(C)c2)cc(Nc2cnccn2)n1)c1ccc(F)cc1 [NS-018]
Ratio IC50 (Homo sapiens [17]): 46
IC50 [18]: 33 nM
IC50 [19]: 39 nM
IC50 (BaF3 [20]): 11 nM
Ratio IC50 (Homo sapiens [21]): 31
IC50 [22]: 0.72 nM
IC50 (BaF3 [23]): 11 nM
Ratio IC50 (Homo sapiens [24]): 54
IC50 [25]: 22 nM

Cc1cnc(Nc2ccc(N3CCN(C)CC3)cc2)nc1Nc1cccc(S(=O)(=O)NC(C)(C)C)c1
IC50 [26]: 17 nM

Cc1cc(Nc2nc(N[C@@H](C)c3ncc(F)cn3)ncc2Cl)n[nH]1 [AZD-1480]
IC50 [27]: 0.4 nM
IC50 [28]: 1.3 nM

CC1(C)CN(C(=O)c2ccc(-c3cccc4nc(NC(=O)C5CC5)nn34)cc2)C1 [SOLCITINIB]
Ratio IC50 (Homo sapiens [5]): 23
Ratio IC50 (Homo sapiens [6]): 55
IC50 [7]: 225 nM
IC50 [8]: 539 nM
IC50 [9]: 9.8 nM
Ratio IC50 (Homo sapiens [10]): 11
IC50 [11]: 108 nM

Cc1cc(Nc2cc(CN3CCOCC3)c3nc(C)c(Cc4ccc(Cl)cc4F)n3n2)n[nH]1 [GANDOTINIB]
IC50 (BaF3 [29]): 1310 nM
IC50 [30]: 1180 nM
IC50 [31]: 20 nM
IC50 [7]: 44 nM
IC50 [2]: 48 nM
IC50 (BaF3 [32]): 55 nM

CC[C@@](C)(Nc1ccnc(-c2c[nH]c3ncccc23)n1)C(=O)NCC(F)(F)F [DECERNOTINIB]
Ki [33]: 11 nM
IC50 [34]: 50 nM
IC50 (B cell): 50 nM
IC50 [35]: 50 nM
IC50 [36]: 50 nM
IC50 [37]: 50 nM

CCS(=O)(=O)N1CC(CC#N)(n2cc(-c3ncnc4[nH]ccc34)cn2)C1 [BARICITINIB]
Activity (Rattus norvegicus [38]): >95%
Activity (Rattus norvegicus [39]): 50%

— ChEMBL document CHEMBL5244234, “Janus kinases (JAKs): The efficient therapeutic targets for autoimmune diseases and myeloproliferative disorders” (Eur J Med Chem, 2020)
